Experimental data reported in patent publication EP4491649A1, “DUAL CURABLE OLIGOMERS” (ARKEMA FRANCE, priority 2023, dated 2025).

Tests used:
Type in all cases: physicochemical
[1] = Viscosity of the oligomers (Brookfield RVDV-II+ Pro, #28 spindle); conditions: 20 rpm
Protocol: The viscosity of the oligomers was measured using a Brookfield RVDV-II+ Pro instrument at a temperature of 60°C using a #28 spindle and a rotational speed of 20 rpm. Moreover, the viscosity of the oligomers was measured with a Brookfield RVDV-II+ Pro instrument at a temperature of 25°C using a #28 spindle and a rotational speed of 10 rpm.

[2] = Refractive index (RX-7000 α, ATAGO)
Protocol: The refractive index of the oligomers was measured using a RX-7000 α from AT AGO at a temperature of 25°C.

[3] = Mechanical performance of cured compositions (tensile strength, modulus, elongation at break, ASTM D638)
Protocol: These mechanical properties were measured in accordance with ASTM D638.
The mechanical performance tests were performed on compositions comprising the oligomer to be tested mixed with SR506, photoinitiators and/or curing agents, as detailed in Tables 4, 5 and 6 below.
Tests UV + Thermal cure: 80 wt.% of oligomers were mixed with 20 wt. % of SR506. To this mixture were added 3 wt.% of TPO and 1 wt.% of 2E4MZ (based on the total weight of oligomers + SR506).
Tests UV cure: 80 wt.% of oligomers were mixed with 20 wt. % of SR506. To this mixture was added 3 wt.% of TPO (based on the total weight of oligomers + SR506).
Tests Thermal cure: 80 wt.% of oligomers were mixed with 20 wt.% of SR506. To this mixture was added 1 wt.% of 2E4MZ (based on the total weight of oligomers + SR506).

[4] = Storage stability (thermal test, viscosity before/after 48 hours at 65°C, alone or mixed with ADH)
Protocol: The storage stability tests were performed by placing the oligomer to be tested, alone or mixed with ADH (as a curing agent), at 65°C for 48 hours (thermal test), and measuring their viscosity (cps@60C).

[5] = Epoxy Equivalent Weight (EEW), ASTM D1763-1981
Protocol: The EEW was measured in accordance with ASTM D1763-1981.

[6] = Thermal Cure, 80 wt.% oligomer + 20 wt.% SR506, then 1 wt.% 2E4MZ
[7] = UV + Thermal Cure, 80 wt.% oligomer + 20 wt.% SR506, then 3 wt.% TPO + 1 wt.% 2E4MZ
[8] = UV Cure, 80 wt.% oligomer + 20 wt.% SR506, then 3 wt.% TPO

C=CC(=O)OCC(O)COc1ccc(C(C)(C)c2ccc(OCC3CO3)cc2)cc1 (stereo not drawn) [Reference]
Viscosity (60°C) [1]: 2390 mPa.s | Viscosity (60°C) ([1]; listed as Comparative oligomer): around 2390 mPa.s | Refractive Index (25°C) [2]: 1.5633 | Elongation at break (%) [3, 6]: 2.095% | Tensile modulus [3, 6]: 2,037 | Tensile strength (Mpa) [3, 6]: 43.33 Mpa | Elongation at break (%) [3, 7]: 1.86% | Tensile modulus [3, 7]: 4027 | Tensile strength (Mpa) [3, 7]: 73.39 Mpa | Elongation at break (%) [3, 8]: 2.32% | Tensile modulus [3, 8]: 2722 | Tensile strength (Mpa) [3, 8]: 62.9 Mpa | viscosity change after storage ([4]; 65°C for 48h, not mixed with ADH): no significant viscosity change | Viscosity (cps@60C) After storage 48h, 65°C ([4]; after storage 48h at 65°C, measured at 60C): 2,450 cps | Viscosity (cps@60C) Initial ([4]; initial, measured at 60C): 2,390 cps | state of composition after storage ([4]; mixed with 20 wt.% ADH, 48h at 65°C): becomes gelled | EEW ([5]; Table 2): 1020 g/ep | EEW ([5]; synthesis text): 1020 g/eq
